The values below come from patent publication US7202265B2, “Indolinone combinatorial libraries and related products and methods for the treatment of disease” (Sugen, Inc., priority 1997, dated 2007).

The test system of the assay is human MET. Kind of assay: MET biochemical kinase assay. On the set-up: concentration or dose not given beside the values. From the text:
(d) MET Biochemical Kinase Assay
A met biochemical kinase assay may be performed for met generally as described above for other kinases by substituting that or the other kinases. In particular, ELISA plates are coated with goat anti-rabbit Fc antibodies, which are used to capture commercially available (from Santa Cruz Biotechnology) rabbit polyclonal antibodies to the cytoplasmic domain of human MET. […] The chimeric receptors, or MET, from these lysates are captured on the antibody coated plates. After washing away extraneous proteins, test compounds are added and an in vitro kinase assay is performed by addition of an appropriate kinase buffer (containing ATP, divalent metal ions, etc.). Incorporation of phosphate into the captured receptors is detected with an anti-phosphotyrosine antibody conjugate with horse radish peroxidase using TMB as a substrate for calorimetric detection.
Turning to `O=C1Nc2ccc(CCCl)cc2C1=Cc1ccccc1O` [10720/G05], the “Met Kinase % Inhibition” value came to 37.0%.
On to `Cc1cc(C=C2C(=O)Nc3c(Br)cc(Br)cc32)sc1C` [10721/A04], for which the “Met Kinase % Inhibition” value is reported as 85.0%.
Then `CC(C)(C)c1cc(C=C2C(=O)Nc3c(Br)cc(Br)cc32)ccc1O` [10721/A09], with 23.0%.
With `CC(C)(C)c1cc(C=C2C(=O)Nc3ccc(I)cc32)cc(C(C)(C)C)c1O` [10721/B11], the “Met Kinase % Inhibition” value was determined as 6.7%.
For `Cc1c(Br)ccc2c1C(=Cc1nn(C)cc1Cl)C(=O)N2` [10721/C03] the value was 6.2%; for `Cc1c(Br)ccc2c1C(=Cc1ccc(O)c(C(C)(C)C)c1)C(=O)N2` [10721/C09], −4.7%.
Then `Cc1c(Br)ccc2c1C(=Cc1cc(C(C)(C)C)c(O)c(C(C)(C)C)c1)C(=O)N2` [10721/C11], with 3.7%; and `CNS(=O)(=O)c1ccc2c(c1)C(=Cc1cc([N+](=O)[O-])cc(CCl)c1O)C(=O)N2` [10721/D06], with 9.0%.
Consider `CNS(=O)(=O)c1ccc2c(c1)C(=Cc1ccc(Cl)s1)C(=O)N2` [10721/D07], for which the “Met Kinase % Inhibition” value was −6.8%.
For `CNS(=O)(=O)c1ccc2c(c1)C(=Cc1ccc(O)c(C(C)(C)C)c1)C(=O)N2` [10721/D09] the value was −4.9%; for `O=C1Nc2ccc(S(=O)(=O)Nc3ccc(C(F)(F)F)cc3)cc2C1=Cc1cc([N+](=O)[O-])cc(CCl)c1O` [10721/E06], 81.0%; for `CC(C)(C)c1cc(C=C2C(=O)Nc3ccc(S(=O)(=O)Nc4ccc(C(F)(F)F)cc4)cc32)ccc1O` [10721/E09], 0.7%.
Then `Cc1cc(C=C2C(=O)Nc3ccc(S(=O)(=O)N4CCOCC4)cc32)sc1C` [10721/F04], with 26.0%.
Turning to `Cn1c(C=C2C(=O)Nc3ccc(CCCl)cc32)nc2ccccc21` [10721/G02], the “Met Kinase % Inhibition” value worked out at 7.9%.
For `O=C1Nc2ccc(CCCl)cc2C1=Cc1cc2c([nH]1)CCCC2` [10721/G05] the value was 8.6%.
For `O=C1Nc2ccc(CCCl)cc2C1=Cc1ccc(Cl)s1` [10721/G07] the value was 10.0%; for `Cc1cc(C)c(C=C2C(=O)Nc3ccc(CCCl)cc32)[nH]1` [10721/G08], −2.4%; for `CC(C)(C)c1cc(C=C2C(=O)Nc3ccc(CCCl)cc32)ccc1O` [10721/G09], 5.1%.
For `CC(C)(C)c1cc(C=C2C(=O)Nc3ccc(CCCl)cc32)cc(Br)c1O` [10721/G10] the value was 12.0%; for `CC(C)(C)c1cc(C=C2C(=O)Nc3ccc(CCCl)cc32)cc(C(C)(C)C)c1O` [10721/G11], −0.0%.
With `CCCCN(CCCC)c1ccc(C=C2C(=O)Nc3c(Br)cc(Br)cc32)cc1` [10722/A10], the “Met Kinase % Inhibition” value is recorded as 79.0%.
Then `CC(C)(C)c1cc(C=C2C(=O)Nc3ccc(I)cc32)cc(Cl)c1O` [10722/B08], with 72.0%; and `O=C1Nc2ccc(I)cc2C1=Cc1ccc(C(F)(F)F)cc1` [10722/B11], with 83.0%; and `CNS(=O)(=O)c1ccc2c(c1)C(=Cc1ccc(C(F)(F)F)cc1)C(=O)N2` [10722/D11], with 41.0%.
Then `O=C1Nc2ccc(S(=O)(=O)Nc3ccc(C(F)(F)F)cc3)cc2C1=Cc1ccc(C(=O)O)cc1` [10722/E05], with 73.0%; and `O=C1Nc2ccc(S(=O)(=O)Nc3ccc(C(F)(F)F)cc3)cc2C1=Cc1ccc(C(F)(F)F)cc1` [10722/E11], with 84.0%; and `CC(C)(C)c1cc(C=C2C(=O)Nc3ccc(CCCl)cc32)cc([N+](=O)[O-])c1O` [10722/G02], with 43.0%.
For `O=C1Nc2ccc(CCCl)cc2C1=Cc1ccc(C(=O)O)cc1` [10722/G05] the value was 9.7%.
On to `O=C1Nc2ccc(CCCl)cc2C1=Cc1csc([N+](=O)[O-])c1` [10722/G09], for which the “Met Kinase % Inhibition” value is 51.0%.
